Among the data in US20250051347A1, “BIFUNCTIONAL CHIMERIC HETEROCYCLIC COMPOUND AND USE THEREOF AS ANDROGEN RECEPTOR DEGRADER” (Hinova Pharmaceuticals, Inc., priority 2021, published 2025) are AUC(0-inf), IC50 and DC50 values, retold here.

A short description of data set [1]: Pharmacokinetics in mice (plasma exposure after oral administration). The data set is classed as in vivo. To be noted: mouse, ICR mice, oral (i.g.) 3 mg/kg, read-out: After oral administration of 3 mg/kg, mouse plasma exposure AUCinf.
A further data set concerns 22RV1 cells. The settings on record: Homo sapiens, 22Rv1, 144 h, read-out: 22RV1 IC50 (nM), 22RV1 cells, 6 days culture, CCK-8, OD 450 nm.
The target in data set [2] is T1, androgen receptor (AR) splicing variant AR-v7 (Homo sapiens, UniProt P10275).
T1 construct: The degradation activity of compounds on AR-v7 in 22RV1 cells; host or cells: 22RV1 cells
T1 sequence (P10275 1-644 isoform P10275-3): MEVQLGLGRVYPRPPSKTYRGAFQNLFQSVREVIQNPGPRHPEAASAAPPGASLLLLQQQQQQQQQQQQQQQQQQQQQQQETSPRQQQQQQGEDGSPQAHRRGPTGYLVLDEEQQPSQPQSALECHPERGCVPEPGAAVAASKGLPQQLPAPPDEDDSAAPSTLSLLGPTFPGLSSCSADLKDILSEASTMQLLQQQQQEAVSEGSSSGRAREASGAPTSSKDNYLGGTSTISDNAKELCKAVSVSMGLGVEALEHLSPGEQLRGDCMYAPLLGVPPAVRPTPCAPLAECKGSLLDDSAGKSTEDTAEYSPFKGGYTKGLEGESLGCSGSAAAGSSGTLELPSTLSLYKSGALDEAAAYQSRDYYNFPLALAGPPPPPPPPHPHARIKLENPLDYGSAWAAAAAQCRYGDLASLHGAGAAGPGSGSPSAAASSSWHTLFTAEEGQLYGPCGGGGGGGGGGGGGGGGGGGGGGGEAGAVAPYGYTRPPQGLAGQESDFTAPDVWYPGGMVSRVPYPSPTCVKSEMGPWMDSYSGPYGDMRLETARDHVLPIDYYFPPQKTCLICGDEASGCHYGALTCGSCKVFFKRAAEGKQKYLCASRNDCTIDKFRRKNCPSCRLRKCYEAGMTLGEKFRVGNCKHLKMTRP
The experiment in a line: Degradation activity on androgen receptor splicing variant AR-v7 in 22RV1 cells (ELISA). Format: cell-based. The settings on record: AR-v7 degradation in 22RV1 cells, 48 h, class symbols. (In general: ELISA stands for enzyme-linked immunosorbent assay.)

A value given as a limit tells only on which side of the number the result lay.

Consider `Cc1nnc(-c2ccc(Oc3ccc(C(C)(C)c4ccc(O[C@H]5C[C@H](Nc6ccc7c(c6)C(=O)N(C6CCC(=O)NC6=O)C7=O)C5)cc4)cc3)cn2)o1` (stereo partly drawn) [Example 323], for which, in data set [1], the AUC(0-inf) was in the range of 5 to 30 µg·h/mL. For the same molecule, the IC50 (commonly the concentration that inhibits the measured activity by half) in the data set with 22RV1 cells amounted to 11 nM. Moreover, the DC50 (as a rule, the concentration giving 50% degradation) in data set [2] was below 0.01 µM.

As to `CC(O)c1ncc(Oc2ccc(C3(c4ccc(O[C@H]5C[C@H](Nc6ccc7c(c6)C(=O)N(C6CCC(=O)NC6=O)C7=O)C5)cc4)CC3)cc2)cn1` (stereo partly drawn) [Example 377, 2-(2,6-dioxopiperidin-3-yl)-5-(((1r,3r)-3-(4-(1-(4-((2-(1-hydroxylethyl)pyrimidin-5-yl)oxy)phenyl)cyclopropyl)phenoxy)cyclobutyl)amino)isoindolin-1,3-dione], in data set [1], the AUC(0-inf) is 5 to 30 µg·h/mL. The 50% inhibitory concentration (IC50) in the data set with 22RV1 cells was determined as 12 nM. The same molecule yielded a half-maximal degradation concentration (DC50) in data set [2] below 0.01 µM.

With `O=C1CCC(N2C(=O)c3ccc(N[C@H]4C[C@H](Oc5ccc(C6(c7ccc(OCc8ccnc(N9CC%10(COC%10)C9)n8)cc7)COC6)cc5)C4)cc3C2=O)C(=O)N1` (stereo partly drawn) [Example 355, 5-(((1r,3r)-3-(4-(3-(4-((2-(2-oxa-6-azaspiro[3.3]heptane-6-yl)pyrimidin-4-yl)methoxy)phenyl)oxetane-3-yl)phenoxy)cyclobutyl)amino)-2-(2,6-dioxopiperidin-3-yl)isoindolin-1,3-dione], the AUC(0-inf) in data set [1] was 5 to 30 µg·h/mL. The IC50 in the data set with 22RV1 cells amounted to 2 nM. The molecule also showed a DC50 in data set [2] below 0.01 µM.

As for `CC(C)(c1ccc(Oc2cnc(-n3ccnn3)cn2)cc1)c1ccc(O[C@H]2C[C@H](Nc3ccc4c(c3)C(=O)N(C3CCC(=O)NC3=O)C4=O)C2)cc1` (stereo partly drawn) [Example 584], in data set [1], the AUC(0-inf) is 1 to 5 µg·h/mL. The half-inhibitory concentration (IC50) in the data set on 22RV1 cells was 4 nM. Also, in data set [2], the DC50 is below 0.01 µM.

With `COc1ncc2c(n1)CN(c1ccc(C(C)(C)c3ccc(OC4CC(Nc5ccc6c(c5)C(=O)N(C5CCC(=O)NC5=O)C6=O)C4)cc3)cc1)CC2` (stereo not drawn) [Example 188], the AUC(0-inf) in data set [1] was in the range of 1 to 5 µg·h/mL. Besides, in the data set on 22RV1 cells, the IC50 stood at 12 nM. Further, the DC50 in data set [2] is below 0.01 µM.

As for `C=CC(c1ccc(Oc2cnc(-n3nccn3)nc2)cc1)c1ccc(O[C@H]2C[C@H](Nc3ccc4c(c3)C(=O)N(C3CCC(=O)NC3=O)C4=O)C2)cc1` (stereo partly drawn) [Example 372, 5-(((1r,3r)-3-(4-(1-(4-((2-(2H-1,2,3-triazole-2-yl)pyrimidin-5-yl)oxy)phenyl)allyl)phenoxy)cyclobutyl)amino)-2-(2,6-dioxopiperidin-3-yl)isoindolin-1,3-dione], in data set [1], the AUC(0-inf) is 5 to 30 µg·h/mL. Also, in the data set on 22RV1 cells, the IC50 was found to be 8 nM. The molecule further returned a DC50 in data set [2] below 0.01 µM.

For the molecule `CC(C)(c1ccc(OCc2ccnc(N3CC4(COC4)C3)n2)cc1)c1ccc(OC[C@@H]2CCN2c2ccc3c(c2)C(=O)N(C2CCC(=O)NC2=O)C3=O)cc1` (stereo partly drawn) [Example 312, 5-((S)-2-((4-(2-(4-((2-(2-oxa-6-azaspiro[3.3]heptan-6-yl)pyrimidin-4-yl)methoxy)phenyl)propan-2-yl)phenoxy)methyl)azetidin-1-yl)-2-(2,6-dioxopiperidin-3-yl)isoindolin-1,3-dione], the AUC(0-inf) in data set [1] is 0.1 to 1 µg·h/mL. For the same molecule, in the data set with 22RV1 cells, the 50% inhibitory concentration (IC50) is 22 nM. The same molecule registered a DC50 in data set [2] below 0.01 µM.

In the case of `C=CC(c1ccc(Oc2ccc(-c3noc(C)n3)nn2)cc1)c1ccc(O[C@H]2C[C@H](Nc3ccc4c(c3)C(=O)N(C3CCC(=O)NC3=O)C4=O)C2)cc1` (stereo partly drawn) [Example 259], the AUC(0-inf) in data set [1] lay within 5 to 30 µg·h/mL. Besides, the IC50 with 22RV1 cells was found to be 7 nM. The 50% degradation concentration (DC50) in data set [2] is below 0.01 µM.
